Key:
DCAF15/RBM39 = DCAF15/RBM39 (Homo sapiens (Human), UniProt Q14498+Q66K64); assay: AlphaLISA compound-induced DCAF15-RBM39 ternary complex formation; type: binding; settings: His-tagged DCAF15 complex and biotin-carrying RBM39
Method: Example 7: Quantitative Evaluation of Compound-Induced Ternary Complex Formation Using Amplified Luminescent Proximity Homogeneous Assay
Compound-induced DCAF15-RBM39 ternary complex formation was monitored using AlphaLISA® assays (Perkin Elmer, Waltham, MA). Test compounds were first collected in a 384-well microplate (cat. #781280, Grenier Bio-One, Monroe, NC) as 2 mM stocks in 100% dimethyl sulfoxide (DMSO). These stocks were then serially diluted in DMSO by 3-fold into a new plate (cat. #781280, Grenier Bio-One, Monroe, NC) using a Mosquito HTS dispenser (Mosquito® HTS, SPT Labtech, Boston, MA). 0.2 μL of these diluted stocks were then dispensed into a 384-well Optiplate (cat. #6007290, Perkin Elmer, Waltham, MA) in duplicate wells, to assemble the final assay plate consisting of duplicated dose ranges. Separately, a protein mixture consisting of His-tagged DCAF15 complex and biotin-carrying RBM39, each at 408 nM (2.04×), was prepared in 50 mM HEPES, pH 7.5, 100 mM NaCl, 2 mM MgCl2, 0.1% BSA, 2 mM TCEP, 0.05% Tween-20 (dilution buffer). 9.8 μL of this protein mixture was then mixed with the compounds in the assay plate and incubated for one hour at room temperature. Reaction mixtures with no compounds added were included as negative controls, while a His-tagged and biotinylated GST protein was included to track general assay performance. Nickel Chelate AlphaLISA Acceptor beads (cat. #AL108M, Perkin Elmer, MA) and AlphaScreen Streptavidin Donor beads (cat. #6760002, Perkin Elmer, Waltham, MA) were prepared separately in the dilution buffer as 4× stocks (80 ug/ml). The beads were then added to the assay plate sequentially with incubation at room temperature for 1-2 hours after each addition. Signals were recorded using EnVision 2104 Multilabel Plate Reader (Perkin Elmer, Waltham, MA) and titration curves were generated in GraphPad Prism (7.00, GraphPad, La Jolla, CA).

DCAF15 = DCAF15 (Homo sapiens (Human), UniProt Q66K64); assay: HTRF competition assay, binary interaction with DCAF15; type: binding; settings: competition with Alexa Fluor 647 tracer
Method: Example 8: Measurement of Binary Interaction Between Compounds and DCAF15 Using Homogeneous Time Resolved Fluorescence (HTRF)
DCAF15 interactions with test compounds were monitored using HTRF competition assays (Cisbio, Bedford, MA). Test compounds were first collected in a 384-well microplate (cat. #781280, Grenier Bio-One, Monroe, NC) as 10 mM stocks in 100% dimethyl sulfoxide (DMSO). A second stock plate (cat. #781280, Grenier Bio-One, Monroe, NC) was prepared through 3-fold serial dilution in DMSO of the afore-mentioned stocks using a Mosquito HTS dispenser (mosquito@ HTS, SPT Labtech, Boston, MA). 0.2 μL of these diluted stocks were then dispensed into a 384-well Optiplate (cat. #6007290, Perkin Elmer, Waltham, MA) in duplicate wells, to assemble the assay plate. The tracer molecule containing an Alexa Fluor 647 probe was prepared in 25 mM HEPES pH 7.5, 100 mM NaCl, 0.1 mg/ml BSA, 0.005% Tween 20, 0.5 mM TCEP (dilution buffer) to 612 nM (2.04×). Separately, His-tagged DCAF15 complex was prepared at 32 nM (4×) in the dilution buffer, and mAb Anti-6His-Eu cryptate Gold (cat. #61H12KLA, Cisbio, Bedford, MA) at 4× dilution in the detection buffer (cat. #61DB9RDF, Cisbio, Bedford, MA). These two solutions were mixed and incubated for 15 min at room temperature. 9.8 μL of the tracer solution and 10 μL of the DCAF15/mAb Anti-6His-Eu cryptate Gold mixture were added sequentially to each well in the assay plate. Reaction mixtures with no DCAF15 added were included as positive controls. The final mixture was incubated for an hour at room temperature and spun down briefly before data collection at 615 nm and 666 nm using EnVision 2104 Multilabel Plate Reader (Perkin Elmer, Bedford, MA). Binding was estimated based on ratiometric analysis and titration curves were generated in GraphPad Prism (7.00, GraphPad, La Jolla, CA).

RBM39 = RBM39 (Homo sapiens (Human), UniProt Q14498+Q66K64); assay: Western blot assay for degradation of RBM39 in HCT116 cells; type: cell-based; settings: Incubation Time: 4 hours, read-out: RBM39 Degradation: IC50 (uM) [Incubation Time: 4 hours]
Method: Example 9: Western Blot Assay Procedure for Assessing Degradation of RBM39 in HCT116 Cells
HCT116 cells were used with passage numbers ranging from 13 to 25. Cells were seeded in 12-well plated at a density of 1 million cells per well in 1 mL cell culture medium containing McCoy's 5A medium (Cat. #16600082, ThermoFisher, Waltham, MA), 10% Fetal Bovine Serum (Cat. #26140, ThermoFisher, Waltham, MA) and 1% Pen-Strep (Cat. #. 15070063, ThermoFisher, Waltham, MA) and incubated overnight. The next morning, compounds were serially diluted (1:3, 9 points) in the medium separately and were prepared 2× the final assay concentration. Subsequently, 1.0 mL medium containing DMSO or the appropriate concentration of each compound was added to respective wells. The final DMSO concentration in each well was 0.1%. […] Cells were then washed once with 1 mL of ice cold Dulbecco's phosphate-buffered saline (Cat. #28374, ThermoFisher, Waltham, MA) and then lysed with 100 μl of lysis buffer containing 1×RIPA (Cat. #. 89900, ThermoFisher, Waltham, MA) and HALT protease and phosphatase inhibitor (Cat. #78442, ThermoFisher, Waltham, MA) on ice for 10 minutes with intermittent rocking. Lysates were then sonicated in a sonication bath (3 pulses of 10 sec each with 1 min incubation on ice between each pulse). Samples were then centrifuged for 20 min at 14,000 rpm for 20 min. Supernatants were then transferred to fresh microfuge tubes and stored frozen at −80° C. until use. Total protein quantitation in lysate samples was done using the BCA protein quantitation kit following the manufacturer's instructions. […] Band intensity in images was quantified using the Image Studio Lite software (Version 5.2). Signal intensity for RBM-39 specific bands were normalized using the signal intensity for […] band, and percent degradation was assessed by comparing RBM39 signal in compound-treated vs. DMSO-treated samples.

Row | EC50 (DCAF15/RBM39) [nM] | IC50 (DCAF15) [nM] | DC50 (RBM39) [µM] | Compound
1 | ≤ 1000 | 1000 to 10000 | ≤ 1 | O=S1(=O)Cc2ccc(S(=O)(=O)Nc3ccc(Cl)c4c(Cl)c[nH]c34)cc2C1 [Compound 17, N-(3,4-dichloro-1H-indol-7-yl)-1,3-dihydrobenzo[c]thiophene-5-sulfonamide 2,2-dioxide]
2 | ≤ 1000 | 1000 to 10000 | ≤ 1 | O=C1NCc2cc(S(=O)(=O)Nc3ccc(Cl)c4c(Cl)c[nH]c34)ccc2O1 [Compound 42, N-(3,4-dichloro-1H-indol-7-yl)-2-oxo-3,4-dihydro-2H-benzo[e][1,3]oxazine-6-sulfonamide]
3 | ≤ 1000 | – | ≤ 1 | O=C1CSc2ccc(S(=O)(=O)Nc3ccc(Cl)c4c(Cl)c[nH]c34)cc2N1 [Compound 44, N-(3,4-dichloro-1H-indol-7-yl)-3-oxo-3,4-dihydro-2H-benzo[b][1,4]thiazine-6-sulfonamide]
